Assay results taken from US6548539B1, “Agents for regulation of colon cancer gene expression” (Avalon Pharmaceuticals, priority 2001, dated 2003).

Tests used:
Assay type in all cases: cell-based, human
Details in all cases: HT29 cell line (colon tumor), compound 10 μM, 24 hours, vs control
Gene 2 = test: Gene modulating activity in colon cancer cells (RT-PCR RNA expression), Gene 2
Description: (§1) In such assays, primary cells, or tissue samples, are maintained in growth medium and are treated with compounds at a single concentration (10 μM for the data of Table 1) or at a range of concentrations (such as from 1 μM up to 100 μM). At specific times after treatment at the given concentration of test compound, cellular RNAs are isolated from the treated cells, primary cells or tumors, which RNAs are indicative of expression of selected genes, including, but not limited to, the genes used herein. The cellular RNA is then divided and subjected to analysis that detects the presence and/or quantity of specific RNA transcripts, which transcripts may then be amplified for detection purposes using standard methodologies, such as, for example, reverse transcriptase polymerase chain reaction (RT-PCR), etc. The presence or absence, or levels, of specific RNA transcripts are determined from these measurements and a metric derived for the type and degree of response of the sample to the treated compound compared to control samples. One such procedure is shown in example 8 where test compound may or may not be present.
For example, Gene 2 was a gene that encodes a kallikrein. Tissue or glandular kallikreins are members of a large and highly conserved family of serine proteases that are central to many physiological processes. They are secreted protein-cleaving enzymes that process for example kininogen (local blood flow, sodium balance, inflammation, cell proliferation), growth factors (EGF, NGF, vasoactive peptide), or other substrates. The prostate antigens hK2 and PSA are members of this family. Diseases in which kallikreins have been implicated include acute pancreatitis, inflammatory arthritis and inflammatory bowel disease, sepsis, enterocolitis, arterial and salt-sensitive hypertension, blood coagulation disorders, scorpion and snake evenomation, infections and cancer. Thus, the chemical agents disclosed herein find use in the treatment and/or prevention of any of these diseases.
(§2) HT29 cells are grown to a density of 10^5 cells/cm^2 in Leibovitz's L-15 medium supplemented with 2 mM L-glutamine (90%) and 10% fetal bovine serum. The cells are collected after treatment with 0.25% trypsin, 0.02% EDTA at 37° C. for 2 to 5 minutes. The trypsinized cells are then diluted with 30 ml growth medium and plated at a density of 50,000 cells per well in a 96 well plate (200 μl/well). The following day, cells are treated with either compound buffer alone, or compound buffer containing a chemical agent to be tested, for 24 hours. The media is then removed, the cells lysed and the RNA recovered using the RNAeasy reagents and protocol obtained from Qiagen. […] Reverse transcription is then carried out at 48° C. for 30 minutes. The sample is then applied to a Perlin Elmer 7700 sequence detector and heat denatured for 10 minutes at 95° C. Amplification is performed through 40 cycles using 15 seconds annealing at 60° C. followed by a 60 second extension at 72° C. and 30 second denaturation at 95° C. Data files are then captured and the data analyzed with the appropriate baseline windows and thresholds.
(§3) For testing of the effects of a compound of Table 1, each compound was present at a concentration of 10 μM in the culture medium.
The quantitative difference between the target and reference genes is then calculated and a relative expression value determined for all of the samples used. This procedure is then repeated for each of the target genes in a given signature, or characteristic, set and the relative expression ratios for each pair of genes is determined (i.e., a ratio of expression is determined for each target gene versus each of the other genes for which expression is measured, where each gene's absolute expression is determined relative to the reference gene for each compound, or chemical agent, to be screened). […]

Gene 10 = test: Gene modulating activity in colon cancer cells (RT-PCR RNA expression), Gene 10
Description: as §1, §2, §3
(§4) The quantitative difference between the target and reference genes is then calculated and a relative expression value determined for all of the samples used. This procedure is then repeated for each of the target genes in a given signature, or characteristic, set and the relative expression ratios for each pair of genes is determined (i.e., a ratio of expression is determined for each target gene versus each of the other genes for which expression is measured, where each gene's absolute expression is determined relative to the reference gene for each compound, or chemical agent, to be screened). The samples are then scored and ranked according to the degree of alteration of the expression profile in the treated samples relative to the control. The overall expression of the set of genes relative to the controls, as modulated by one chemical agent relative to another, is also readily ascertained. Chemical agents having the most effect on a given gene, or set of genes, are considered the most therapeutic or anti-neoplastic, depending on the tissues being studied. In each case, the agent was present in the cell culture at a concentration of ten micromolar.
(§5) The sets of genes, or signature sets, useful in the methods of the invention disclosed herein represent a set of genes expressed at a higher level in a cancer cell line derived from colon but not expressed at a higher level in normal colon (for example, genes 1, 2, 4-10 for the data of Table 1) or whose expression is higher in normal cells (for example, genes 3 and 11 for the data of Table 1) relative to the cancer cells. […]

Gene 1 = test: Gene modulating activity in colon cancer cells (RT-PCR RNA expression), Gene 1
Description: as §1, §2, §3, §4, §5

Gene 3 = test: Gene modulating activity in colon cancer cells (RT-PCR RNA expression), Gene 3
Description: as §1, §2, §3, §4, §5

Gene 5 = test: Gene modulating activity in colon cancer cells (RT-PCR RNA expression), Gene 5
Description: as §1, §2, §3, §4, §5

Gene 4 = test: Gene modulating activity in colon cancer cells (RT-PCR RNA expression), Gene 4
Description: as §1, §2, §3, §4, §5

Gene 9 = test: Gene modulating activity in colon cancer cells (RT-PCR RNA expression), Gene 9
Description: as §1, §2, §3, §4, §5

Gene 8 = test: Gene modulating activity in colon cancer cells (RT-PCR RNA expression), Gene 8
Description: as §1, §2, §3, §4, §5

Gene 11 = test: Gene modulating activity in colon cancer cells (RT-PCR RNA expression), Gene 11
Description: as §1, §2, §3
as §4, with “In each case, the agent was present in the cell culture at a concentration of ten micromolar.” left out

Gene 6 = test: Gene modulating activity in colon cancer cells (RT-PCR RNA expression), Gene 6
Description: as §1, §2, §3, §4, §5

Gene 7 = test: Gene modulating activity in colon cancer cells (RT-PCR RNA expression), Gene 7
Description: as §1, §2, §3, §4, §5

| SMILES | Gene 2 Folds of up (+) or down (−) regulatlon (Gene 2) | Gene 10 Folds of up (+) or down (−) regulatlon (Gene 10) | Gene 1 Folds of up (+) or down (−) regulatlon (Gene 1) | Gene 3 Folds of up (+) or down (−) regulatlon (Gene 3) | Gene 5 Folds of up (+) or down (−) regulatlon (Gene 5) | Gene 4 Folds of up (+) or down (−) regulatlon (Gene 4) | Gene 9 Folds of up (+) or down (−) regulatlon (Gene 9) | Gene 8 Folds of up (+) or down (−) regulatlon (Gene 8) | Gene 11 Folds of up (+) or down (−) regulatlon (Gene 11) | Gene 6 Folds of up (+) or down (−) regulatlon (Gene 6) | Gene 7 Folds of up (+) or down (−) regulatlon (Gene 7) |
| --- | --- | --- | --- | --- | --- | --- | --- | --- | --- | --- | --- |
| CC(C)CN(C(=O)c1ccccc1)C1CCCC1Sc1ccccc1 (stereo not drawn) [AV-96] | 2.8 Folds | 1.9 Folds | 3.5 Folds | 3.2 Folds | 2.8 Folds | 2.8 Folds | 2.5 Folds | 2.8 Folds | 3.7 Folds | −4.9 Folds | 5.3 Folds |
| CCCN(C(=O)c1ccccc1)C1CCCC1Sc1ccccc1 (stereo not drawn) [AV-221] | 1.4 Folds | −6.5 Folds | 64.0 Folds | −3.5 Folds | 1.5 Folds | 1.4 Folds | 1.2 Folds | 1.6 Folds | – | −1.1 Folds | 90.5 Folds |
| O=C(Nc1ccc(-c2ccccc2)cc1)N(Cc1ccccc1)C1CCCC1Sc1ccccc1 (stereo not drawn) [AV-1030] | 3.7 Folds | −2.5 Folds | 2.1 Folds | −1.1 Folds | 2.5 Folds | 1.1 Folds | −2.6 Folds | −2.6 Folds | −4.6 Folds | 1.4 Folds | −1.1 Folds |
| CCCN(C(=O)Nc1ccc(-c2ccccc2)cc1)C1COCC1SC (stereo not drawn) [AV-916] | −1.1 Folds | −8.6 Folds | −2.1 Folds | −8.0 Folds | −1.2 Folds | −1.3 Folds | −6.5 Folds | −3.0 Folds | −3.7 Folds | 1.0 Folds | −1.2 Folds |
| CSC1CCCC1NC(=O)Nc1cccc(Cl)c1 (stereo not drawn) [AV-988] | 2.3 Folds | −4.6 Folds | 2.6 Folds | −11.3 Folds | 1.9 Folds | 1.9 Folds | 1.3 Folds | 1.7 Folds | – | 2.0 Folds | 1.2 Folds |
| CN(C(=O)C1CCC1)C1CCCCC1Sc1ccccc1 (stereo not drawn) [AV-283] | −1.7 Folds | −3.0 Folds | −2.1 Folds | −4.6 Folds | −1.5 Folds | −1.7 Folds | −3.7 Folds | −1.7 Folds | −34.3 Folds | −3.5 Folds | −3.7 Folds |
| COCCN(C(=O)COc1ccccc1)C1CCCC1Sc1ccccc1 (stereo not drawn) [AV-1241] | 1.7 Folds | 13.0 Folds | 1.9 Folds | 29.9 Folds | 1.2 Folds | 2.0 Folds | 9.2 Folds | 2.1 Folds | 27.9 Folds | 2.8 Folds | 26.0 Folds |
